{"source": "patent US20170050957A1", "about": "“4-AMINO-6-(HETEROCYCLIC)PICOLINATES AND 6-AMINO-2-(HETEROCYCLIC)PYRIMIDINE-4-CARBOXYLATES AND THEIR USE AS HERBICIDES” (Dow AgroSciences LLC, priority 2013, published 2017)", "assay_type_in_all_cases": "in vivo", "key": {"[1]": {"system": "barnyardgrass (Echinochloa crs-galli)", "test": "Pre-emergent Test I herbicidal activity", "conditions": "4 Kg ai/ha", "method": "(§1) Pre-emergent Test I Seeds of test species were planted into round plastic pots (5-inch diameter) containing sandy loam soil. After planting, all pots were sub-irrigated 16 h prior to compound application. Compounds were dissolved in a 97:3 v/v (volume/volume) mixture of acetone and dimethyl sulfoxide (DMSO) and diluted to the appropriate concentration in a final application solution containing water, acetone, isopropanol, DMSO and Agri-dex (crop oil concentrate) in a 59:23:15:1.0:1.5 v/v ratio and 0.02% w/v (weight/volume) of Triton X-155 to obtain the spray solution containing the highest application rate. The high application rate was serial diluted with the above application solution to provide delivery of the compound at rates 1/2×, 1/4× and 1/8× of the highest rate (equivalent to 4.0, 2.0, 1.0, and 0.5 kg/ha, respectively). Formulated compound (2.7 mL) was applied pipetted evenly over the soil surface followed by incorporation with water (15 mL). Following treatment, pots were returned to the greenhouse for the duration of the experiment. The greenhouse was programmed for an approximate 15 h photoperiod which was maintained at about 23-29° C. during the day and 22-28° C. during the night. Nutrients and water were added on a regular basis through surface irrigation and supplemental lighting was provided with overhead metal halide 1000-Watt lamps as necessary. Herbicidal effect ratings were obtained 14 days after treatment. All evaluations were made relative to appropriate controls on a scale of 0 to 100 where 0 represents no herbicidal effect and 100 represents plant death or lack of emergence from the soil."}, "[2]": {"system": "giant foxtail (Setaria faberi)", "test": "Pre-emergent Test I herbicidal activity", "conditions": "4 Kg ai/ha", "method": "as §1"}, "[3]": {"system": "ivyleaf morningglory (Ipomoea hederecea)", "test": "Pre-emergent Test I herbicidal activity", "conditions": "4 Kg ai/ha", "method": "as §1"}, "[4]": {"system": "sunflower (Helianthus annuus)", "test": "Pre-emergent Test I herbicidal activity", "conditions": "4 Kg ai/ha", "method": "as §1"}, "[5]": {"system": "wild oats (Avena fatua)", "test": "Pre-emergent Test I herbicidal activity", "conditions": "4 Kg ai/ha", "method": "as §1"}, "[6]": {"system": "Key Broadleaf Weed and Crop Species", "test": "Post-emergent Test II herbicidal activity (Table 15)", "conditions": "post-emergence, 336 h, 14 d; for pest or weed control at 35 g/ha: 35 g ai/ha; for pest or weed control at 70 g/ha: 70 g ai/ha; for pest or weed control at 280 g/ha: 280 g ai/ha", "summary_of_the_method": "(§2)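 Plants at first-second true leaf stage, grown 7-21 d in greenhouse (~15 h photoperiod, 23-29 °C day), were track-sprayed at 187 L/ha with compound in acetone/DMSO/water/isopropanol/crop oil/Triton X-155 at a high rate plus 1/2× to 1/16× dilutions. Injury scored visually after 14 d versus untreated plants, 0 (none) to 100% (complete kill).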"}, "[7]": {"system": "Key Grass and Sedge Weeds as well as Grass Crops", "test": "Post-emergent Test II herbicidal activity (Table 16)", "conditions": "post-emergence, 336 h, 14 d; for pest or weed control at 35 g/ha: 35 g ai/ha; for pest or weed control at 70 g/ha: 70 g ai/ha; for pest or weed control at 140 g/ha: 140 g ai/ha; for pest or weed control at 280 g/ha: 280 g ai/ha", "summary_of_the_method": "as §2"}, "[8]": {"conditions": "Abutilon theophrasti, velvetleaf (Abutilon theophrasti), read-out: Visual Growth Reduction (%) 14 Days After Application, ABUTH"}, "[9]": {"conditions": "Amaranthus retroflexus, redroot pigweed (Amaranthus retroflexus), read-out: Visual Growth Reduction (%) 14 Days After Application, AMARE"}, "[10]": {"conditions": "Brassica napus, oilseed rape, canola (Brassica napus), read-out: Visual Growth Reduction (%) 14 Days After Application, BRSNN"}, "[11]": {"conditions": "Chenopodium album, lambsquarters (Chenopodium album), read-out: Visual Growth Reduction (%) 14 Days After Application, CHEAL"}, "[12]": {"conditions": "Euphorbia heterophylla, wild poinsettia (Euphorbia heterophylla), read-out: Visual Growth Reduction (%) 14 Days After Application, EPHHL"}, "[13]": {"conditions": "Helianthus annuus, sunflower (Helianthus annuus), read-out: Visual Growth Reduction (%) 14 Days After Application, HELAN"}, "[14]": {"conditions": "Cyperus esculentus, yellow nutsedge (Cyperus esculentus), read-out: Visual Growth Reduction (%) 14 Days After Application, CYPES"}, "[15]": {"conditions": "Echinochloa crus-galli, barnyardgrass (Echinochloa crus-galli), read-out: Visual Growth Reduction (%) 14 Days After Application, ECHCG"}, "[16]": {"conditions": "Oryza sativa, rice (Oryza sativa), read-out: Visual Growth Reduction (%) 14 Days After Application, ORYSA"}, "[17]": {"conditions": "Setaria faberi, giant foxtail (Setaria faberi), read-out: Visual Growth Reduction (%) 14 Days After Application, SETFA"}, "[18]": {"conditions": "Triticum aestivum, wheat, spring (Triticum aestivum), read-out: Visual Growth Reduction (%) 14 Days After Application, TRZAS"}, "[19]": {"conditions": "Zea mays, maize, corn (Zea mays), read-out: Visual Growth Reduction (%) 14 Days After Application, ZEAMX"}}, "note": "Where two headings read alike, the source gives them in different places.", "data": [{"smiles": "COC(=O)c1nc(-c2ccc3sccc3c2)cc(N)c1Cl", "note": "[Compound 3.05]", "values": [{"measurement": "Visual Growth Reduction (%) 14 Days After Application, ECHCG", "setting": "[1]", "value": "A (95-100)"}, {"measurement": "Visual Growth Reduction (%) 14 Days After Application, SETFA", "setting": "[2]", "value": "A (95-100)"}, {"measurement": "Visual Growth Reduction (%) 14 Days After Application IPOHE", "setting": "[3]", "value": "A (95-100)"}, {"measurement": "Visual Growth Reduction (%) 14 Days After Application HELAN", "setting": "[4]", "value": "F (30-44)"}, {"measurement": "Visual Growth Reduction (%) 14 Days After Application AVEFA", "setting": "[5]", "value": "F (30-44)"}, {"measurement": "pest or weed control at 35 g/ha", "setting": "[6]; [8]", "value": "85 to 94", "unit": "%"}, {"measurement": "pest or weed control at 70 g/ha", "setting": "[6]; [8]", "value": "85 to 94", "unit": "%"}, {"measurement": "pest or weed control at 280 g/ha", "setting": "[6]; [8]", "value": "95 to 100", "unit": "%"}, {"measurement": "pest or weed control at 35 g/ha", "setting": "[6]; [9]", "value": "30 to 44", "unit": "%"}, {"measurement": "pest or weed control at 70 g/ha", "setting": "[6]; [9]", "value": "45 to 59", "unit": "%"}, {"measurement": "pest or weed control at 280 g/ha", "setting": "[6]; [9]", "value": "85 to 94", "unit": "%"}, {"measurement": "pest or weed control at 35 g/ha", "setting": "[6]; [10]", "value": "0 to 29", "unit": "%"}, {"measurement": "pest or weed control at 70 g/ha", "setting": "[6]; [10]", "value": "0 to 29", "unit": "%"}, {"measurement": "pest or weed control at 280 g/ha", "setting": "[6]; [10]", "value": "0 to 29", "unit": "%"}, {"measurement": "pest or weed control at 35 g/ha", "setting": "[6]; [11]", "value": "75 to 84", "unit": "%"}, {"measurement": "pest or weed control at 70 g/ha", "setting": "[6]; [11]", "value": "85 to 94", "unit": "%"}, {"measurement": "pest or weed control at 140 g/ha", "setting": "[6]; Chenopodium album, lambsquarters (Chenopodium album), 140 g ai/ha, read-out: Visual Growth Reduction (%) 14 Days After Application, CHEAL", "value": "85 to 94", "unit": "%"}, {"measurement": "pest or weed control at 280 g/ha", "setting": "[6]; [11]", "value": "85 to 94", "unit": "%"}, {"measurement": "pest or weed control at 35 g/ha", "setting": "[6]; [12]", "value": "60 to 74", "unit": "%"}, {"measurement": "pest or weed control at 70 g/ha", "setting": "[6]; [12]", "value": "60 to 74", "unit": "%"}, {"measurement": "pest or weed control at 280 g/ha", "setting": "[6]; [12]", "value": "85 to 94", "unit": "%"}, {"measurement": "pest or weed control at 35 g/ha", "setting": "[6]; [13]", "value": "0 to 29", "unit": "%"}, {"measurement": "pest or weed control at 70 g/ha", "setting": "[6]; [13]", "value": "0 to 29", "unit": "%"}, {"measurement": "pest or weed control at 280 g/ha", "setting": "[6]; [13]", "value": "45 to 59", "unit": "%"}, {"measurement": "pest or weed control at 35 g/ha", "setting": "[7]; [14]", "value": "0 to 29", "unit": "%"}, {"measurement": "pest or weed control at 70 g/ha", "setting": "[7]; [14]", "value": "0 to 29", "unit": "%"}, {"measurement": "pest or weed control at 140 g/ha", "setting": "[7]; [14]", "value": "0 to 29", "unit": "%"}, {"measurement": "pest or weed control at 280 g/ha", "setting": "[7]; [14]", "value": "0 to 29", "unit": "%"}, {"measurement": "pest or weed control at 35 g/ha", "setting": "[7]; [15]", "value": "45 to 59", "unit": "%"}, {"measurement": "pest or weed control at 70 g/ha", "setting": "[7]; [15]", "value": "75 to 84", "unit": "%"}, {"measurement": "pest or weed control at 140 g/ha", "setting": "[7]; [15]", "value": "85 to 94", "unit": "%"}, {"measurement": "pest or weed control at 280 g/ha", "setting": "[7]; [15]", "value": "85 to 94", "unit": "%"}, {"measurement": "pest or weed control at 35 g/ha", "setting": "[7]; [16]", "value": "0 to 29", "unit": "%"}, {"measurement": "pest or weed control at 70 g/ha", "setting": "[7]; [16]", "value": "0 to 29", "unit": "%"}, {"measurement": "pest or weed control at 140 g/ha", "setting": "[7]; [16]", "value": "0 to 29", "unit": "%"}, {"measurement": "pest or weed control at 280 g/ha", "setting": "[7]; [16]", "value": "0 to 29", "unit": "%"}, {"measurement": "pest or weed control at 35 g/ha", "setting": "[7]; [17]", "value": "0 to 29", "unit": "%"}, {"measurement": "pest or weed control at 70 g/ha", "setting": "[7]; [17]", "value": "0 to 29", "unit": "%"}, {"measurement": "pest or weed control at 140 g/ha", "setting": "[7]; [17]", "value": "30 to 44", "unit": "%"}, {"measurement": "pest or weed control at 280 g/ha", "setting": "[7]; [17]", "value": "60 to 74", "unit": "%"}, {"measurement": "pest or weed control at 35 g/ha", "setting": "[7]; [18]", "value": "0 to 29", "unit": "%"}, {"measurement": "pest or weed control at 70 g/ha", "setting": "[7]; [18]", "value": "0 to 29", "unit": "%"}, {"measurement": "pest or weed control at 140 g/ha", "setting": "[7]; [18]", "value": "0 to 29", "unit": "%"}, {"measurement": "pest or weed control at 280 g/ha", "setting": "[7]; [18]", "value": "0 to 29", "unit": "%"}, {"measurement": "pest or weed control at 35 g/ha", "setting": "[7]; [19]", "value": "0 to 29", "unit": "%"}, {"measurement": "pest or weed control at 70 g/ha", "setting": "[7]; [19]", "value": "0 to 29", "unit": "%"}, {"measurement": "pest or weed control at 140 g/ha", "setting": "[7]; [19]", "value": "45 to 59", "unit": "%"}, {"measurement": "pest or weed control at 280 g/ha", "setting": "[7]; [19]", "value": "60 to 74", "unit": "%"}]}]}
